# Source: US20060142566A1, “Enantioselective process for the preparation of both enantiomers of 10,11-dihydro-10-hydroxy-5h-dibenz[b,f]azepine-5-carboxamide and new crystal forms thereof” (priority 2002, published 2006)
# What was measured:
# Type in all cases: physicochemical
# [1] = solubility in organic and aqueous solutions; settings: compared to modification B
# [2] = hygroscopicity of the crystal modifications
# [3] = stability of the crystal forms (bulk stability, thermodynamic stability); settings: solid form, storage
Compound,solubility [1],hygroscopicity [2],stability of crystal form (thermodynamic) [3]
"NC(=O)N1c2ccccc2CC(O)c2ccccc21 (single isomer, unassigned) [modification A, (R)- or (S)-10,11-dihydro-10-hydroxy-5H-dibenz[b,f]azepine-5-carboxamide]",better soluble in organic and aqueous solutions than modification B,Neither modification A nor modification B are hygroscopic,
"NC(=O)N1c2ccccc2CC(O)c2ccccc21 (single isomer, unassigned) [modification B, (R)- or (S)-10,11-dihydro-10-hydroxy-5H-dibenz[b,f]azepine-5-carboxamide]",,Neither modification A nor modification B are hygroscopic,thermodynamically stable crystalline form
